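Dose response: 5 concentrations. Exposure: 48 h. Format: 96-well plates. Endpoint: linear interpolation; highest concentration if not reached. GI50 marks 50% less growth.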 Activity calls are given as the source filed them. No stated cut-off is given here; in the data, active = GI50 up to about 1.1 µM and inactive = higher.
Assays:
Assay in all cases: inhibition of tumour cell growth, NCI panel, 48 h
[1] = system: MOLT-4
[2] = system: HOP-92
[3] = system: Malme-3M
[4] = system: M14
[5] = system: OVCAR-4
[6] = system: COLO 205
[7] = system: KM12
[8] = system: LXFL 529
[9] = system: K562
[10] = system: HT-29
[11] = system: UO-31
[12] = system: OVCAR-8
[13] = system: DMS-114
[14] = system: SF-268
[15] = system: KM-20L2
[16] = system: NCI-H23
[17] = system: A549
[18] = system: OVCAR-5
[19] = system: SF-295
[20] = system: HL-60
[21] = system: HCC 2998
[22] = system: SNB-19
[23] = system: SK-MEL-5
[24] = system: NCI-H522
[25] = system: M19-MEL
[26] = system: SR
[27] = system: XF498
[28] = system: RXF 393
[29] = system: UACC-62
[30] = system: SK-MEL-2
[31] = system: RXF 631
[32] = system: 786-0
[33] = system: ACHN
[34] = system: HCT-15
[35] = system: SK-OV-3
[36] = system: SW-620
[37] = system: TK-10
[38] = system: U-251
[39] = system: EKVX
[40] = system: SF-539
[41] = system: OVCAR-3
[42] = system: DLD-1
[43] = system: CCRF-CEM
[44] = system: SN12C
[45] = system: IGROV-1
[46] = system: SK-MEL-28
[47] = system: SNB-78
[48] = system: CAKI-1

CN(C)c1ccc(/C=C(\NC(=O)c2ccccc2)c2nc3cncnc3[nH]2)cc1
GI50 [1]: > 100 µM (inactive) | GI50 [2]: 41.5 µM (inactive) | GI50 [3]: > 100 µM (inactive) | GI50 [4]: > 100 µM (inactive) | GI50 [5]: > 100 µM (inactive) | GI50 [6]: > 100 µM (inactive) | GI50 [7]: > 100 µM (inactive) | GI50 [8]: > 100 µM (inactive) | GI50 [9]: > 100 µM (inactive) | GI50 [10]: > 100 µM (inactive) | GI50 [11]: > 100 µM (inactive) | GI50 [12]: > 100 µM (inactive) | GI50 [13]: > 100 µM (inactive) | GI50 [14]: > 100 µM (inactive) | GI50 [15]: > 100 µM (inactive) | GI50 [16]: > 100 µM (inactive) | GI50 [17]: > 100 µM (inactive) | GI50 [18]: > 100 µM (inactive) | GI50 [19]: > 100 µM (inactive) | GI50 [20]: > 100 µM (inactive) | GI50 [21]: > 100 µM (inactive) | GI50 [22]: > 100 µM (inactive) | GI50 [23]: > 100 µM (inactive) | GI50 [24]: > 100 µM (inactive) | GI50 [25]: > 100 µM (inactive) | GI50 [26]: > 100 µM (inactive) | GI50 [27]: > 100 µM (inactive) | GI50 [28]: > 100 µM (inactive) | GI50 [29]: > 100 µM (inactive) | GI50 [30]: > 100 µM (inactive) | GI50 [31]: > 100 µM (inactive) | GI50 [32]: > 100 µM (inactive) | GI50 [33]: > 100 µM (inactive) | GI50 [34]: > 100 µM | GI50 [35]: > 100 µM (inactive) | GI50 [36]: > 100 µM (inactive) | GI50 [37]: > 100 µM (inactive) | GI50 [38]: > 100 µM (inactive) | GI50 [39]: > 100 µM (inactive) | GI50 [40]: > 100 µM (inactive) | GI50 [41]: > 100 µM (inactive) | GI50 [42]: > 100 µM (inactive) | GI50 [43]: > 100 µM (inactive) | GI50 [44]: > 100 µM (inactive) | GI50 [45]: > 100 µM (inactive) | GI50 [46]: > 100 µM (inactive) | GI50 [47]: > 100 µM (inactive) | GI50 [48]: > 100 µM (inactive)

Source: ChEMBL document CHEMBL1201862, “PubChem BioAssay data set” (2004)
